Read-outs that look alike come from different tables or passages of the source. Marks after values point to notes of the source that are not given here. A value given as a limit tells only on which side of the number the result lay.

In data set [1] the test system is liver homogenates. Set-up: method as in PMID 34641310. Conditions: ref 29; cited from earlier work.
Data set [2] can be described thus: Reduction of nitroxides by excess ascorbate monitored by stopped-flow EPR. Type of data set: physicochemical. Conditions: potassium phosphate buffer 0.1 M, pH 7.4, equilibrated with air, 21 °C; This work. The text has this:
A 4-bore AquaX quartz cell (Bruker) inserted into the cavity was connected to a Bio-Logic MPS-51 stop-flow apparatus with three syringes (Bio-Logic, Claix, France) controlled by the Bio-Logic MPS software. […] The initial second-order reaction rate constant of the reaction of nitroxides with ascorbate, k0 values was derived from experimental results as previously described.

Data set [3] deals with rat liver microsomes (RLM). Particulars: anaerobic; for EPR signal regenerated by reoxidation with potassium ferricyanide: ferricyanide 1 mM added to whole system after 30 min incubation (nitroxide 5: with simultaneous Clo 25 μM).
Experimental: Addition of NADPH to a final concentration of 1 mM started the reaction. Samples were mixed and transferred to glass microcapillary pipettes (50 μL, Hirschmann) that had been previously purged with N2.
Data set [4] has as its system rat liver microsomes (RLM). Description: Aerobic incubation of nitroxides with rat liver microsomes and NADPH monitored by EPR. Conditions: for Nitroxide recovered upon reoxidation with potassium ferricyanide: ferricyanide 1 mM added to whole system after 30 min incubation; for Initial rate of decrease, + Clo / Initial rate of decrease, + Clo (per P450): whole system + clotrimazole 25 μM; for Initial rate of decrease, + Clo / Initial rate of decrease, +DPI / Initial rate of decrease, -NADPH / Initial rate of decrease, -RLM / Initial rate of decrease, + Clo (per P450) / Initial rate of decrease, +DPI (per P450): nitroxide 100 µM; for Initial rate of decrease, +DPI / Initial rate of decrease, +DPI (per P450): whole system + diphenyliodonium chloride 100 μM; for Initial rate of decrease, WS / Initial rate of decrease, WS (per P450): whole system: nitroxide 100 µM + RLM + NADPH, pH 7.4, 21 °C; for Initial rate of decrease, -NADPH: without NADPH; for Initial rate of decrease, -RLM: without RLM; for Decay in 30 min (conversion by P450): RLM + NADPH.

For data set [5] the following is noted: cited from earlier work.
The mark [6] stands for this setting: whole system + clotrimazole 25 μM, nitroxide 100 μM.
Setting [7] is: whole system + diphenyliodonium chloride 100 μM, nitroxide 100 μM.
Where [8] appears, read: whole system: nitroxide 100 μM + RLM + NADPH, pH 7.4, 21 °C.
Setting [9] is: reaction measured with ascorbate and glutathione mixtures.

Take `CCC1(CC)CC(CN)C(CC)(CC)N1[O]` (centres unmarked) [Compound 6, 3-(aminomethyl)-2,2,5,5-tetraethylpyrrolidineyloxyl]: the “Decay in liver homogenates” value in data set [1] was “significantly decayed”.

For `CCC1(CC)c2ccc(C(=O)O)cc2C(CC)(CC)N1[O]` [Nitroxide 5, 5-carboxy-1,1,3,3-tetraethyl-2-isoindolinyloxyl], in data set [2], the “Initial second-order reaction rate constant k0 for reduction by excess ascorbate” value amounted to 0.02 ± 0.01 M⁻¹ s⁻¹. Moreover, the “EPR signal regenerated by reoxidation with potassium ferricyanide” value (“EPR signal regenerated by reoxidation” below) in data set [3] was determined as 30%. The “New six-line paramagnetic species formed, share of the initial nitroxide” value in data set [4] (300 μM nitroxide, RLM 30 μM P450, 2 mM NADPH, 21 °C, at 10 min (maximum)) was 7%. In data set [4], the “Nitroxide recovered upon reoxidation with potassium ferricyanide” value (“Nitroxide recovered upon reoxidation” below) was “not the case”; the “Initial rate of decrease, + Clo” value is reported as 0.0 *** nmol·min^−1·mg^−1 prot; the “Initial rate of decrease, +DPI” value is given as 0.0 *** nmol·min^−1·mg^−1 prot; the “Initial rate of decrease, WS” value is reported as 3.4 ± 0.2 nmol·min^−1·mg^−1 prot. Moreover, in data set [4], the “Initial rate of decrease, WS (per P450)” value is listed as 0.88 ± 0.05 nmol·min^−1·nmol^−1 P450; the “Initial rate of decrease, -NADPH” value is 0.0 *** nmol·min^−1·mg^−1 prot; the “Initial rate of decrease, -RLM” value was 0.0 *** nmol·min^−1·mg^−1 prot.

Regarding `CC1(C)CC(=O)CC(C)(C)N1[O]` [Nitroxide 1, 2,2,6,6-tetramethyl-4-oxo(piperidine-1-yloxyl) radical, reference compound], the “Initial second-order reaction rate constant k0 for reduction by excess ascorbate” value in data set [2] was 6.9 ± 0.1 M⁻¹ s⁻¹; in data set [5] (setting [9]), 7.2 ± 0.8 ^a M^−1·s^−1; in data set [5] (ref 42), 5.75 ± 0.04 M⁻¹ s⁻¹; in data set [5] (ref 57) it was 6.9 ± 0.7 M⁻¹ s⁻¹. Further, the “EPR signal regenerated by reoxidation” value in data set [3] is reported as 37%. For the same compound, the “Initial rate of decrease, + Clo” value in data set [3] (setting [6]) turned out to be 4.3 ± 0.4 nmol·min^−1·mg^−1·prot; in data set [4], 1.2 ± 0.3 nmol·min^−1·mg^−1 prot. Besides, the “Initial rate of decrease, + Clo (per P450)” value in data set [3] (setting [6]) came out at 1.1 ± 0.2 nmol·min^−1·nmol^−1·P450; in data set [4], 0.30 ± 0.09 nmol·min^−1·nmol^−1 P450. For the same compound, the “Initial rate of decrease, +DPI” value in data set [3] (setting [7]) is on record as 2.7 ± 0.3 nmol·min^−1·mg^−1·prot; in data set [4], 5.1 ± 0.3 nmol·min^−1·mg^−1 prot. The figures for the “Initial rate of decrease, +DPI (per P450)” value in data set [3] (setting [7]) and in data set [4] were 0.70 ± 0.08 nmol·min^−1·nmol^−1·P450 and 1.31 ± 0.07 nmol·min^−1·nmol^−1 P450, respectively. Besides, the “Initial rate of decrease, WS” value in data set [3] (setting [8]) turned out to be 19.3 ± 0.9 nmol·min^−1·mg^−1·prot; in data set [4], 11.1 ± 0.8 nmol·min^−1·mg^−1 prot. Further, the “Initial rate of decrease, WS (per P450)” value turned out to be 5.0 ± 0.5 nmol·min^−1·nmol^−1·P450 in data set [3] (setting [8]) and 2.8 ± 0.2 nmol·min^−1·nmol^−1 P450 in data set [4]. Besides, the “Initial rate of decrease, -NADPH” value in data set [3] (without NADPH, nitroxide 100 μM) is 0.0 ** nmol·min^−1·mg^−1·prot; in data set [4], 0.0 *** nmol·min^−1·mg^−1 prot. Moreover, the “Initial rate of decrease, -RLM” value in data set [3] (without RLM, nitroxide 100 μM) is given as 0.0 ** nmol·min^−1·mg^−1·prot; in data set [4] it was 0.0 *** nmol·min^−1·mg^−1 prot. Further, the “Nitroxide recovered upon reoxidation” value in data set [4] came to 15%.

Take `CCC1(CC)C=C(C(=O)O)C(CC)(CC)N1[O]` [Nitroxide 4, 3-carboxy-2,2,5,5-tetrethyl-pyrrolinyloxyl]: in data set [2], the “Initial second-order reaction rate constant k0 for reduction by excess ascorbate” value came out at 0.0077 ± 0.0009 M⁻¹ s⁻¹. Also, the “EPR signal regenerated by reoxidation” value in data set [3] was “hardly detectable”. Moreover, in data set [5] (setting [9]), the “Initial second-order reaction rate constant k0 for reduction by excess ascorbate” value is on record as 0.00122 ± 0.00003 ^a M^−1·s^−1. Moreover, in data set [4], the “Decay in 30 min (conversion by P450)” value is 5–10%; the “Nitroxide recovered upon reoxidation” value is “not the case”; the “Initial rate of decrease, + Clo” value is listed as 0.0 ** nmol·min^−1·mg^−1 prot; the “Initial rate of decrease, +DPI” value is listed as 0.0 ** nmol·min^−1·mg^−1 prot. Further, in data set [4], the “Initial rate of decrease, WS” value is given as 0.84 ± 0.09 nmol·min^−1·mg^−1 prot; the “Initial rate of decrease, WS (per P450)” value came to 0.22 ± 0.03 nmol·min^−1·nmol^−1 P450; the “Initial rate of decrease, -NADPH” value is given as 0.0 ** nmol·min^−1·mg^−1 prot; the “Initial rate of decrease, -RLM” value is listed as 0.0 ** nmol·min^−1·mg^−1 prot.

For the compound `CC1(C)CC(C(=O)O)C(C)(C)N1[O]` (centres unmarked) [Nitroxide 2, 3-carboxy-2,2,5,5-tetramethyl-1-pyrrolidinyloxyl], in data set [2], the “Initial second-order reaction rate constant k0 for reduction by excess ascorbate” value came to 0.072 ± 0.003 M⁻¹ s⁻¹. For the same compound, the “Initial second-order reaction rate constant k0 for reduction by excess ascorbate” value in data set [5] (setting [9]) was 0.060 ± 0.003 ^a M^−1·s^−1. Besides, in data set [5] (ref 42), the “Initial second-order reaction rate constant k0 for reduction by excess ascorbate” value is 0.079 ± 0.001 M⁻¹ s⁻¹. The “Initial second-order reaction rate constant k0 for reduction by excess ascorbate” value in data set [5] (ref 70) is 0.11 ± 0.01 M⁻¹ s⁻¹. For the same compound, in data set [4], the “Nitroxide recovered upon reoxidation” value is 42%; the “Initial rate of decrease, + Clo” value is 0.94 ± 0.09 nmol·min^−1·mg^−1 prot; the “Initial rate of decrease, + Clo (per P450)” value was 0.24 ± 0.03 nmol·min^−1·nmol^−1 P450; the “Initial rate of decrease, +DPI” value came to 2.1 ± 0.3 nmol·min^−1·mg^−1 prot. In addition, in data set [4], the “Initial rate of decrease, +DPI (per P450)” value came out at 0.54 ± 0.07 nmol·min^−1·nmol^−1 P450; the “Initial rate of decrease, WS” value amounted to 4.8 ± 0.8 nmol·min^−1·mg^−1 prot; the “Initial rate of decrease, WS (per P450)” value turned out to be 1.2 ± 0.1 nmol·min^−1·nmol^−1 P450; the “Initial rate of decrease, -NADPH” value is 0.0 ** nmol·min^−1·mg^−1 prot. In addition, in data set [4], the “Initial rate of decrease, -RLM” value is on record as 0.0 ** nmol·min^−1·mg^−1 prot.

Regarding `CCC1(CC)CC(CNC(=O)C[P+](c2ccccc2)(c2ccccc2)c2ccccc2)C(CC)(CC)N1[O].[Cl-]` (centres unmarked) [Compound 7, 3-(2-triphenylphosphonio)acetamidomethyl-2,2,5,5-tetraethylpyrrolidine-1-oxyl chloride], the “Decay in liver homogenates” value in data set [1] is recorded as “significantly decayed”.

Take `CCC1(CC)CC(C(=O)O)C(CC)(CC)N1[O]` (centres unmarked) [Nitroxide 3, 3-carboxy-2,2,5,5-tetraethyl-1-pyrrolidinyloxyl]: in data set [2], the “Initial second-order reaction rate constant k0 for reduction by excess ascorbate” value was found to be 0.0011 ± 0.0002 M⁻¹ s⁻¹. Besides, the “EPR signal regenerated by reoxidation” value in data set [3] is recorded as “hardly detectable”. The “Initial second-order reaction rate constant k0 for reduction by excess ascorbate” value in data set [5] (setting [9]) is given as 0.0011 ± 0.0002 ^a M^−1·s^−1. Further, the “Initial second-order reaction rate constant k0 for reduction by excess ascorbate” value in data set [5] (ref 30) was no more than 0.001 M⁻¹ s⁻¹. Also, the “Initial second-order reaction rate constant k0 for reduction by excess ascorbate” value in data set [5] (ref 42) is 0.002 ± 0.001 M⁻¹ s⁻¹. Moreover, in data set [4], the “Decay in 30 min (conversion by P450)” value was 5–10%; the “Nitroxide recovered upon reoxidation” value is recorded as “not the case”; the “Initial rate of decrease, + Clo” value is recorded as 0.0 ** nmol·min^−1·mg^−1 prot; the “Initial rate of decrease, +DPI” value is 0.0 ** nmol·min^−1·mg^−1 prot. In data set [4], the “Initial rate of decrease, WS” value is given as 1.8 ± 0.2 nmol·min^−1·mg^−1 prot; the “Initial rate of decrease, WS (per P450)” value came to 0.46 ± 0.05 nmol·min^−1·nmol^−1 P450; the “Initial rate of decrease, -NADPH” value is 0.0 ** nmol·min^−1·mg^−1 prot; the “Initial rate of decrease, -RLM” value is listed as 0.0 ** nmol·min^−1·mg^−1 prot.

Source of the values: publication PMC9952648, “Structural Features Governing the Metabolic Stability of Tetraethyl-Substituted Nitroxides in Rat Liver Microsomes” (Antioxidants, 2023).
